Test results taken from article PMC9917023, “Stabilization of Monomeric Tau Protein by All D-Enantiomeric Peptide Ligands as Therapeutic Strategy for Alzheimer’s Disease and Other Tauopathies” (International Journal of Molecular Sciences, 2023).
Non-standard residues stand in square brackets, D forms with d. Residues, ends and D or L forms follow the SMILES beside them.

Key:
[1] = test system: brain endothelial cells (RBMVEC) and astroglial cells (CTX TNA2)
Experimental: Each peptide was tested at different time points in triplicate next to an unseeded negative control (“Empty”) and quantitatively analyzed via HPLC using a calibration curve to determine the concentration of the peptide in the receiving chamber at each point in time (Figure 11). From these values, the volume of each chamber, and the respective time, a Papp permeability coefficient in cm²/s was calculated for each substance to represent its ability to cross the in vitro blood–brain barrier model.
An amount equaling 1 mg/mL TF2D-5 (A) or TF2D-5a (B) was added to an insert that was seeded and covered with endothelial and astroglial cells, representing the in vitro blood–brain barrier, or an empty insert serving as a control. After different time points, samples were taken and analyzed by quantitative HPLC analysis. Data given as mean ± SD out of three independent replicates.
Brain endothelial cells from rats and astroglial cells were used to cultivate the different sides of the porous membrane.
Brain endothelial cells from rats (RBMVEC, Cell Applications Inc., R840-05a, San Diego, CA, USA) were cultivated in Complete Classic medium (Cell Systems, Kirkland, WA, USA, 4Z0-500), and rat astroglial cells (CTX TNA2, ATCC, CRL-2006) were cultivated in Complete Classic medium (Cell Systems, Kirkland, WA, USA, 4Z0-500). The cells were allowed to grow in a humidified incubator with 5% CO2 at 37 °C and a maximum of 20 passages. The cells were passaged every 3 to 5 days, according to their confluence.
In order to set up the in vitro BBB model, the astroglial cells were seeded at a density of 600.000 cells/cm² on the outer (basolateral, “brain”) side of an insert with a porous membrane (Corning Transwell polycarbonate membrane cell culture inserts, CLS3415, 3 µM pore size) and allowed to grow/adhere overnight in the Complete Classic medium. The next day, brain endothelial cells were seeded at a density of 600.000 cells/cm² on the inner side (apical, “blood”) of the corresponding membrane. The seeded inserts were then cultivated to grow to full confluence over a period of 5 to 7 days, with the medium renewed daily. […] Prior to this, TEER (transendothelial electrical resistance values) were measured in each well to ensure the integrity of the in vitro BBB. At 0, 30, 60, 90, 120, 150, 180, and 240 min, 50 µL of the medium out of the outer chamber was taken and analyzed by HPLC. This 50 µL would then be replaced by the same amount of fresh serum-free medium to keep the fluid levels equal across both chambers. This slight dilution was factored into the following calculations. Furthermore, a dilution series of each reagent was analyzed alongside the samples as a calibration to quantify the analysis. […] The Papp values were calculated as follows (higher is better): Papp =(V/A∗C)∗(Dc/Dt)

full-length tau 441 = target: T1, full-length tau 441 (Homo sapiens, UniProt P10636); test: Thioflavin-T assay of heparin-induced tau aggregation; assay type: biochemical
T1 construct: The gene for the human full-length tau was prepared on a plasmid called pET28a(+)-tau2N4R; made in house; host or cells: E. coli pRare
Experimental: Figure 5 Tau aggregation-influencing effect of TF2D-5 and TF2D-5a. The ThT assay was performed in a FLUOstar plate reader from BMG Labtech. Twenty-five micrometers recombinant full-length tau 441 was mixed with 12.5 µM heparin, 200 µM DTT, 0.05% NaN3, and […]. Compounds were added with a concentration of 25 µM. The total volume was adjusted to 100 µL with PBS pH 7.4, and the plate was measured with bottom optics. The experiment ran at 37 °C with measurement intervals of 20 min. Before each measurement, the plate was shaken for 15 s at 300 rpm. A 3 mm borosilicate bead was added to each well. (A) The effect of TF2D-5 when added at different time points during the ThT assay. When added at the start of the experiment no aggregation can be observed for the duration of the experiment (green). […] (B) The addition of TF2D-5a to the sample inhibits tau aggregation during the complete experiment which equals a lag time increase of at least 400% (blue). […] CP1 was obtained by randomizing the amino acid residue composition of TF2D-5.
To investigate whether TF2D-5 and TF2D-5a induce an extension of the lag time of tau aggregation, we performed a ThT experiment with sub-stoichiometric D-peptide concentrations. For this, we used tau that was produced according to the protocol in the Section 4. Twenty-five micrometers of full-length tau was incubated with 6.25 µM, 12.5 µM 25 µM, 50 µM, and 100 µM of D-peptides. As expected, we observed an increase in the lag time of the full-length tau aggregation with the increasing D-peptide concentrations. […] The addition of 6.25 µM of TF2D-5a shifted the lag time by about 60 h (a 200% increase).
ThT assays to characterize the aggregation inhibition properties of the selected compounds were conducted as follows. All measurements were performed in a FLUOstar plate reader (BMG, Offenburg, Germany). Recombinant full-length tau 441 (25 µM) was mixed with heparin (12.5 µM), DTT (200 µM), NaN3 (0.05%), and ThT (20 µM). […] The compounds were added with a maximum concentration of 25 µM. The total volume was adjusted to 100 µL with PBS pH 7.4, and the plate (Corning, New York, NY, USA) was measured with bottom optics. A 3 mm borosilicate bead (Hilgenberg GmbH, Malsfeld, Germany) was added to each well. The experiment ran at 37 °C, with measurement intervals of 20 min. Before each measurement, the plate was shaken for 15 s at 300 rpm.

PC12 cells = test: Cell-viability assay (MTT); assay type: cell-based, rat; conditions: 0.2, 1 and 5 µM, 24 h, 37 °C
Experimental: Human […] SH-SY5Y cells and rat pheochromocytoma PC12 cells were cultivated in RPMI medium with 10% fetal bovine serum and 5% horse serum. On a collagen-coated 96-well plate (Gibco, Life Technology, Carlsbad, CA, USA), 10.000 cells were seeded per well. The plate was incubated for 24 h at 37 °C and 5% CO2. TF2D-5 and TF2D-5a were added to the cells at concentrations of 0.2 µM, 1 µM, and 5 µM, respectively. As a positive control, 0.1% Trion X-100 was used. A medium was used as a negative control. The samples were incubated for a further 24 h at 37 °C and 5% CO2. Cell viability was determined by using the Cell Proliferation Kit 1 (MTT) (Roche, Basel, Switzerland) according to the instruction manual. The absorbance of generated formazan products was measured using a CLARIOstar plate reader (BMG, Offenburg, Germany). Absorption at 570 nm was measured and referenced against absorbance at 660 nm.
Figure S3. Peptide toxicity assay for different concentrations of TF2D -5 and TF2D-5a.
For this assay the compounds TF2D -5 and TF2D-5a were incubated on SHSY5Y and PC12 cells for 24 h at 37 °C and 5 % CO2. The “Cell Proliferation Kit 1” from Roche was used for the MTT assay. RPMI with 10 % HS and 5 % FBS was used as cell medium. As […] 0.1 % Triton X100 was used. For both assays no negative effect on the cell viability could be observed by addition of both compounds. […]

[2] = Stability in simulated gastric fluid; assay type: in vitro ADME; conditions: SGF: 2 mg/mL NaCl, 3.2 mg/mL pepsin, 80 mM HCl, pH 1; 8 h
Experimental: (§1) Figure 12 Stability assay of TF2D-5 and TF2D-5a using different simulated human body fluids. (A) Stability of compounds in simulated gastric fluid (SGF). The simulated gastric fluid consisted of 2 mg/mL sodium chloride, 3.2 mg/mL pepsin, and 80 mM HCl; pH 1. (B) Stability of TF2D-5 and TF2D-5a in simulated intestinal fluid (SIF). Simulated intestinal fluid consisted of 6.8 mg/mL potassium dihydrogen phosphate, 10 mg/mL pancreas powder, and 15.4 mM NaOH; pH 6.8. (C) Stability of TF2D-5 and TF2D-5a in human blood plasma. K3EDTA human blood plasma was purchased from BioTrend. (D) Stability of TF2D-5 and TF2D-5a in human liver microsomes. Human liver microsomes consisted of 6 mg/mL protein (containing Cytochrome P450 (CYP) enzymes), 75 mM sucrose, 1.3 mM NADPH, 3.3 mM D-glucose-6-phosphat, 0.2 u/mL D-glucose-6-phosphat dehydrogenase, 3.3 mM magnesium chloride, and 100 mM potassium phosphate; pH 7.4.
(§2) The stability of the compounds was tested according to Elfgen et al. and Schemmert et al. Exceptions included the extraction of plasma, simulated gastric fluid (SGF), and simulated intestinal fluid (SIF) samples. These were obtained by the addition of 12.5 µL 0.35 M ZnSO4, followed by vortexing, the addition of 12.5 µL 0.5 M HCl, additional vortexing, and centrifugation at 14,000× g for 10 min at 4 °C.

[3] = Stability in human blood plasma; assay type: in vitro ADME; conditions: K3EDTA human blood plasma, after 48 h; read-out: still detectable in human blood plasma
Experimental: as §1, §2

[4] = 6.25 µM D-peptide, 25 µM full-length tau

T1 sequence (P10636 1-441 isoform P10636-8): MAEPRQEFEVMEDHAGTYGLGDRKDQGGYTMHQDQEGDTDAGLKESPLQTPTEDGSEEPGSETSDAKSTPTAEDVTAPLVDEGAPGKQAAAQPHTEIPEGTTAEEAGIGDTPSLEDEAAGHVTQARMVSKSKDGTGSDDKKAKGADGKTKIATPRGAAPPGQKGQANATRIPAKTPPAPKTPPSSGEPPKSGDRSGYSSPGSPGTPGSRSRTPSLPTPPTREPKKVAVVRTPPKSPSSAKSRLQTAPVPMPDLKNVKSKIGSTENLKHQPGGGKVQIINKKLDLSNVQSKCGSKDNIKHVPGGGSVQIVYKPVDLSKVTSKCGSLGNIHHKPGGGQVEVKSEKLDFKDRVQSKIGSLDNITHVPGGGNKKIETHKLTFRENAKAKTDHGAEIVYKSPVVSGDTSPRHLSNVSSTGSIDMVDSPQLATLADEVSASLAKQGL

Papp permeability coefficient [1] [×10⁻⁶ cm/s] | lag time increase (full-length tau 441; [4]) [%] | lag time increase (full-length tau 441; 12.5 µM D-peptide, 25 µM full-length tau) [%] | stability in simulated gastric fluid [2] | remaining at 48 h [3] [%] | lag time increase (full-length tau 441; 25 µM compound, 25 µM tau 441, added at start) | Structure (SMILES) | toxicity (cell viability, MTT) (PC12 cells)
3.6 | 100 | 200 | very stable in simulated gastric fluid | 97.4 |  | CC[C@@H](C)[C@@H](NC(=O)[C@@H](Cc1c[nH]cn1)NC(=O)CNC(=O)CNC(=O)[C@H]1CCCN1C(=O)[C@H](NC(=O)[C@@H](CCCCN)NC(=O)[C@@H](Cc1ccccc1)NC(=O)[C@@H](CC(C)C)NC(=O)[C@H](NC(=O)[C@@H](CCC(N)=O)NC(=O)[C@@H](Cc1ccc(O)cc1)NC(=O)CNC(=O)CNC(=O)[C@H](N)CC(=O)O)[C@H](C)CC)[C@H](C)CC)C(=O)N[C@H](Cc1c[nH]cn1)C(N)=O [TF2D-5] (H-[dD]GG[dY][dQ][dI][dL][dF][dK][dI][dP]GG[dH][dI][dH]-NH2) | not toxic
48 | 200 |  | very stable in simulated gastric fluid | 86.5 | at least 400% | CC[C@@H](C)[C@@H](NC(=O)[C@@H](Cc1c[nH]cn1)NC(=O)CNC(=O)CNC(=O)[C@H]1CCCN1C(=O)[C@H](NC(=O)[C@@H](CCCCN)NC(=O)[C@@H](Cc1ccccc1)NC(=O)[C@@H](CC(C)C)NC(=O)[C@H](NC(=O)[C@@H](CCC(N)=O)NC(=O)[C@@H](Cc1ccc(O)cc1)NC(=O)CNC(=O)CNC(=O)[C@H](N)CC(=O)O)[C@H](C)CC)[C@H](C)CC)C(=O)N[C@H](Cc1c[nH]cn1)C(=O)N[C@H](CCCNC(=N)N)C(=O)N[C@H](CCCNC(=N)N)C(=O)N[C@H](CCCNC(=N)N)C(=O)N[C@H](CCCNC(=N)N)C(=O)N[C@H](CCCNC(=N)N)C(N)=O [TF2D-5a] (H-[dD]GG[dY][dQ][dI][dL][dF][dK][dI][dP]GG[dH][dI][dH][dR][dR][dR][dR][dR]-NH2) | not toxic
